Test results published in publication PMC4193996 (Journal of Experimental & Clinical Cancer Research : CR, 2014).

Legend:
BJ-EHLT fibroblasts [1] = test: γ-H2AX/PCNA co-immunostaining (replication-dependent DNA damage); format: cell-based, human; settings: 24 hrs
Protocol: (§1) Cells were fixed in 2% formaldehyde and permeabilized in 0.25% Triton X100 in PBS for 5 min at room temperature. For immunolabeling, cells were incubated with primary antibody, then washed in PBS and incubated with the secondary antibodies. The following primary antibodies were used: pAb and mAb anti-TRF1(Abcam Ltd.; Cambridge UK); mAb (Upstate, Lake Placid, NY) and pAb anti-γH2AX (Abcam); mAb anti-PCNA (Sigma Chemicals, Milano, Italy). The following secondary antibody were used: TRITC conjugated Goat anti Rabbit, FITC conjugated Goat anti Mouse (Jackson ImmunoResearch Europe Ltd., Suffolk, UK). Fluorescence signals were recorded by using a Leica DMIRE2 microscope equipped with a Leica DFC 350FX camera and elaborated by a Leica FW4000 deconvolution software (Leica, Solms, Germany). This system permits to focus single planes inside the cell generating 3D highresolution images. For quantitative analysis of γH2AX positivity, 200 cells on triplicate slices were scored. For TIFs analysis, in each nucleus a single plane was analyzed and at least 50 nuclei per sample were scored.
Figure 2 DNA damage activation at telomeres. BJ-EHLT fibroblasts were treated for 24 hrs with compound 1 and the indicated ligands at the doses 0.1 (light-grey bars) and 0.5 μM (dark-grey bars). […] Cells with four or more γ-H2AX/TRF1 foci were scored as TIF positive. […]

[2] = tested on: alternating hairpin duplex sequence 5'-biotin-CGA3T3C(CT)2GA3T3CG; test: SPR binding to duplex DNA
Protocol: (§2) Oligonucleotides 5’-biotin-d [AG3 (T2AG3)3] quadruplex and 5’-biotin-CGA3T3C(CT)2GA3T3CG were purchased from Midland Certified Reagent Company (Midland, TX). Purification of DNA, preparation of solutions, collection of data, and analysis of results were conducted according to methods adopted in an earlier study.
(§3) This technique takes advantage of the refractive index change elicits by the binding of the drug with the h-Tel quadruplex DNA sequence 5’-d[AGGG(TTAGGG)3]-3’ or an alternating hairpin duplex sequence immobilized on a sensor chip surface.

[3] = tested on: h-Tel quadruplex DNA, 5'-biotin-d[AG3(T2AG3)3] (DNA, G4) AGGGTTAGGGTTAGGGTTAGGG; test: SPR
[4] = tested on: hairpin duplex, 5'-biotin-CGA3T3C(CT)2GA3T3CG (DNA, hairpin) CGAAATTTCCTCTGAAATTTCG; test: SPR
[5] = target: human recombinant β2 adrenergic receptor (Homo sapiens, UniProt P07550); test: β2 adrenergic receptor inhibition assay; format: binding; settings: read-out: β2 adrenergic % inh @1 μM
Chain of human recombinant β2 adrenergic receptor (P07550 whole entry): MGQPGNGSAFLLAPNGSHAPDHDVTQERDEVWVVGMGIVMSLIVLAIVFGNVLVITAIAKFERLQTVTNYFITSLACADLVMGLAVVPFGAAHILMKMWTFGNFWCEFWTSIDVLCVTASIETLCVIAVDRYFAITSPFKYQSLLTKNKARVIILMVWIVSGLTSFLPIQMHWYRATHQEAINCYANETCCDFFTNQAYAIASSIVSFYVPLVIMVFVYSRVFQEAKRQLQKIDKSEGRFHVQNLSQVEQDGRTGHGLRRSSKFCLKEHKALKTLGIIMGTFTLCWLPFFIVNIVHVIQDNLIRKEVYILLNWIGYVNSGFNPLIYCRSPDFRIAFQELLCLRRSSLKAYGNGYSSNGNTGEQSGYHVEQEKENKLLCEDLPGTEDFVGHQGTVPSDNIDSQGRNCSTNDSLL
Protocol: (§4) hEGR study and the M2 and the β2 receptor inhibition assay were performed as previously reported.
(§5) The new G-quadruplex ligands were designed in an attempt to obtain molecules with improved toxicological and on-target profiles, but maintaining the same favorable chemical and pharmacological features of the lead compound 1. With the aim of selecting the best variants, a step by step comparative analysis of their off- and on-target properties was performed. Initially the new molecules were tested for their ability to interact with and inhibit the human recombinant β2 adrenergic and M2 muscarinic receptors, and to reduce the hERG tail current in a patch clamp assay. […] Therefore, we might expect that the new ligands would impair cardiac functionality to a lesser extent than the lead molecule does.

[6] = tested on: h-Tel quadruplex DNA sequence 5'-d[AGGG(TTAGGG)3]-3'; test: SPR binding to quadruplex DNA; parameters: species or system human; settings: for Quadruplex/duplex ratio: quadruplex vs duplex affinity
Protocol: as §2, §3

[7] = tested on: human 'normal' lung WI-38 cells; test: MTT proliferation assay, WI-38; format: cell-based; settings: for Ratio PMX WI38/HT29: GI50 WI-38 / GI50 HT-29; for GI50: Homo sapiens, WI-38, MTT, 96 hours
Protocol: (§6) Normal WI-38 diploid human lung fibroblasts and the human colorectal adenocarcinoma HT29 cells were obtained from American Type Culture Collection (Manassas, VA, USA). BJ fibroblasts expressing hTERT and SV40 early region (BJ-EHLT) were obtained as previously reported. Cells were grown in Dulbecco Modified Eagle Medium (D-MEM, Invitrogen Carlsbad, CA, USA) supplemented with 10% fetal calf serum, 2 mM L-glutamin and antibiotics.
(§7) MTT (3-(4,5-Dimethylthiazol-2-yl)-2,5-diphenyltetrazolium Bromide) assay was performed in treated and untreated cells for 96 hours. Cells were incubated with MTT solution (Sigma-Aldrich), and the purple formazan crystals were dissolved in isopropanol. Optical densities (OD) at 540 nm was determined on microplate reader.
(§8) Firstly, we investigated if they were able to efficiently promote growth inhibition of tumor cells without affecting the survival of normal cells in vitro. In Table 1 we report for each compound the concentration causing 50% of growth inhibition (GI50) calculated by performing a proliferation assay in the human colon cancer cell line HT-29 or in the human ‘normal’ lung WI-38 cells. […] On the basis of results described so far, we decided to exclude from the further analysis ligand 10 for its high value of hERG inhibition (95%) (Table 1).

[8] = tested on: human colon cancer cell line HT-29; test: MTT proliferation assay, HT-29; format: cell-based; settings: 96 hours
Protocol: as §6, §7, §8

[9] = target: T1, human recombinant M2 muscarinic receptor (Homo sapiens, UniProt P08172); test: M2 muscarinic receptor inhibition assay; format: binding; settings: read-out: Muscarinic (M2) % inh @1 μM
T1 sequence (P08172 1-466): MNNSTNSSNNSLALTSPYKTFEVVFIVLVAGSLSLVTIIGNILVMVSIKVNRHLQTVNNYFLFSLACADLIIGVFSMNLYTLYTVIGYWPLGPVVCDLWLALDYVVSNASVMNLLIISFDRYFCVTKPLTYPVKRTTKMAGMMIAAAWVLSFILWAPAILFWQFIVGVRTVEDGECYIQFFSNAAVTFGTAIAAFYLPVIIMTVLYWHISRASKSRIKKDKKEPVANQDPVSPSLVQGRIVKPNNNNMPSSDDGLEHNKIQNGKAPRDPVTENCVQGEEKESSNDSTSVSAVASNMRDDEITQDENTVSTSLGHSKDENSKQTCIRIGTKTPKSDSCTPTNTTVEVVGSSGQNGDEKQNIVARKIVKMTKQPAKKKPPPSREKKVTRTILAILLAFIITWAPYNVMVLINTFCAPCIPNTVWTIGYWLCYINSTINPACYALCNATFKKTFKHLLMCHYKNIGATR
Protocol: as §4, §5

BJ-EHLT fibroblasts [10] = test: γ-H2AX/TRF1 colocalization (TIFs, telomere uncapping); format: cell-based, human; settings: for mean TIFs per nucleus / telomere dysfunction (TIF formation), in words: 24 hrs; for telomere dysfunction (TIF formation), in words: 0.1 and 0.5 μM
Protocol: as §1
Unfortunately, we were not able to test compounds 4, 5 and the 0,5 μM dose of 3 as they were fluorescent in both red and green channels. […] To ascertain whether γ-H2AX was phosphorylated in response to dysfunctional telomeres, double immunofluorescence experiments were processed by confocal microscopy. We observed that some of the γ-H2AX foci induced by G4-ligands colocalized with TRF1, a good marker for interphase telomeres, forming the so-called telomere dysfunction-induced foci (TIFs) (Figure 2B).
Figure 2 DNA damage activation at telomeres. BJ-EHLT fibroblasts were treated for 24 hrs with compound 1 and the indicated ligands at the doses 0.1 (light-grey bars) and 0.5 μM (dark-grey bars). Cells were processed for immunofluorescence (IF) using antibodies against γ-H2AX and TRF1 to mark DNA damage and telomeres respectively. Percentages of γ-H2AX- (A) and TIF-positive (B) treated and untreated cells are reported in the histograms. (C) Mean number of TIFs in the indicated samples. Cells with four or more γ-H2AX/TRF1 foci were scored as TIF positive. Error bars indicate the standard deviation. (D) Representative images of IF of untreated and 1, 3, 6 and 8-treated BJ-EHLT cells. Enlarged views of TIFs are reported on the right of the merged images. The images were acquired with a Leica Deconvolution microscope (magnification 100x). (E) Cells treated as in (A) were processed for IF of γ-H2AX and PCNA to mark replicating cells. Percentage of γ-H2AX+/PCNA- or γ-H2AX+/PCNA + nuclei in the indicated samples are reported in the histograms.

hERG = hERG (Homo sapiens, UniProt Q12809); test: hERG tail current inhibition in a patch clamp assay; format: cell-based; settings: read-out: hERG % inh @10 μM
Chain of hERG (Q12809 whole entry): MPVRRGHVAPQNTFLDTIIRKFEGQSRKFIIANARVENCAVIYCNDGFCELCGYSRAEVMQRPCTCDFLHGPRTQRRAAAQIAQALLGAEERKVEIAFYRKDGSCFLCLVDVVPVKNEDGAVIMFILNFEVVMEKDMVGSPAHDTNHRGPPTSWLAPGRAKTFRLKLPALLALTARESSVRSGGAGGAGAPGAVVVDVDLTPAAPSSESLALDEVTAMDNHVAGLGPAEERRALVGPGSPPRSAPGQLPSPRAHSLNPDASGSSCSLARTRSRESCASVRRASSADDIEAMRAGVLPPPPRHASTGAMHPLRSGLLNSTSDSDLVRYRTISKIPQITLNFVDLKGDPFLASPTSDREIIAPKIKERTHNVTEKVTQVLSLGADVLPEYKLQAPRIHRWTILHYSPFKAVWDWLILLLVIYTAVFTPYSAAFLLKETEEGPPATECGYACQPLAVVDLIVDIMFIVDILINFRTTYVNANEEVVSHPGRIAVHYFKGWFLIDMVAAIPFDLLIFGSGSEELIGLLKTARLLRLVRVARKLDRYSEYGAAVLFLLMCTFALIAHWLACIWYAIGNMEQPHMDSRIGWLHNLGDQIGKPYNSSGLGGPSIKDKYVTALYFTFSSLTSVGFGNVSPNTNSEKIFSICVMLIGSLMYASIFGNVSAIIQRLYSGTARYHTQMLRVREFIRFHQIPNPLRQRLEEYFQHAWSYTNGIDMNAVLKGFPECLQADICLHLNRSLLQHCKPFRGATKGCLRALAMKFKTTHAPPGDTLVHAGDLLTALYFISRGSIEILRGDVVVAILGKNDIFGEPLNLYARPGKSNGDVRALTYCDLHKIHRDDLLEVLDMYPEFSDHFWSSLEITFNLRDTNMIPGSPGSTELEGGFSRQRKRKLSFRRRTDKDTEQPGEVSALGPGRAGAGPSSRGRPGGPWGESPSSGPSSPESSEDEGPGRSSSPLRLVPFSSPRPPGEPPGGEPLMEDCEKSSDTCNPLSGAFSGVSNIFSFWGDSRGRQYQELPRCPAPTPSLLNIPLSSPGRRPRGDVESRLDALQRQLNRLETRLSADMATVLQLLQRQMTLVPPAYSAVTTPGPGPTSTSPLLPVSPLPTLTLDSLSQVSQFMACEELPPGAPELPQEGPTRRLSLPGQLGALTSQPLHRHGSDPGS
Protocol: as §4, §5

Structure (SMILES) | γ-H2AX foci formation relative to PCNA status (BJ-EHLT fibroblasts [1]) | Duplex DNA affinity K [2] | K [3] | K [4] | inhibition at 1 µM [5] | Quadruplex DNA affinity K [6] | Ratio PMX WI38/HT29 [7] | GI50 [7] | GI50 [8] | inhibition at 1 µM [9] | mean TIFs per nucleus (BJ-EHLT fibroblasts [10]) | percentage of cells with more than four γ-H2AX/TRF1 colocalizations (TIF-positive) (BJ-EHLT fibroblasts [10]; 24 hrs, 0,1 μM) | inhibition at 10 µM (hERG) | Quadruplex/duplex ratio [6] | telomere dysfunction (TIF formation), in words (BJ-EHLT fibroblasts [10]) | percentage of cells with more than four γ-H2AX/TRF1 colocalizations (TIF-positive) (BJ-EHLT fibroblasts [10]; 24 hrs, 0,5 μM)
Cc1cc2c3c([n+](C)c4ccc(F)cc4c3c1)-c1cc(F)ccc1N2C [Compound 1, 3,11-difluoro-6,8,13-trimethyl-8H-quino [4,3,2-kl] acridinium methosulfate, reference compound] | almost exclusively restricted to PCNA-positive | 600000 M⁻¹ | 9e+06 M⁻¹ | 600000 M⁻¹ | 100% | 9e+06 M⁻¹ | 11,6 | 7200 nM | 620 nM | 98% |  |  |  |  |  | 
CN1c2ccccc2-c2c3c1cccc3c1ccc(NC(=O)C3CC3)cc1[n+]2C [Compound 3] |  | 0,1 x10^6 M^−1 | 2.2e+07 M⁻¹ | 100000 M⁻¹ | 13% | 22,0 x10^6 M^−1 | 18,5 | 13000 nM | 700 nM | 98% | about seven | about 18% | 74% | 244,4 |  | 
COC(=O)c1ccc2c(c1)c1cccc3c1c([n+]2C)-c1ccccc1N3C [Compound 2] |  | 0,2 x10^6 M^−1 | 4.2e+06 M⁻¹ | 200000 M⁻¹ | 11% | 4.2e+06 M⁻¹ | 31,1 | 3110 nM | 100 nM | 98% |  |  | 41% | 21 | did not cause significant telomere dysfunction | 
CN1c2ccccc2-c2c3c1cccc3c1ccc(NC(=O)CC[S+](C)[O-])cc1[n+]2C (stereo not drawn) [Compound 5] |  | <0,1 x10^6 M^−1 |  |  | 10% | 2.3e+07 M⁻¹ |  | > 30000 nM | 1830 nM | 93% |  |  | 16% | >230 |  | 
CN1c2ccccc2-c2c3c1cccc3c1ccc(NC(=O)CO)cc1[n+]2C [Compound 6] |  | 0,7 x10^6 M^−1 | 1.47e+07 M⁻¹ | 700000 M⁻¹ | 8% | 14,7 x10^6 M^−1 | 85,7 | 22300 nM | 260 nM | 77% | about seven |  | 35% | 21 |  | ~40%
CN(C)CC#Cc1ccc2c3cccc4c3c([n+](C)c2c1)-c1ccccc1N4C [Compound 7] |  | 0,9 x10^6 M^−1 | 2.93e+07 M⁻¹ | 900000 M⁻¹ | 0% | 29,3 x10^6 M^−1 | 33,4 | 9360 nM | 280 nM | 92% |  |  | 37% | 32,6 | did not cause significant telomere dysfunction | 
CN1c2ccccc2-c2c3c1cccc3c1ccc(CN)cc1[n+]2C [Compound 4] |  | 1,1 x10^6 M^−1 | 7.4e+06 M⁻¹ | 1.1e+06 M⁻¹ | 1% | 7.4e+06 M⁻¹ | 10,6 | 17300 nM | 1630 nM | 65% |  |  | 15% | 6,7 |  | 
C[n+]1c2c3c(cccc3c3ccccc31)Oc1ccccc1-2 [Compound 9] |  | <0,1 x10^6 M^−1 | 1.5e+06 M⁻¹ | < 100000 M⁻¹ |  | 1,5 x10^6 M^−1 | 24,3 | 5110 nM | 210 nM | 24% |  |  | 86% | >15 | did not cause significant telomere dysfunction | 
CN1c2ccccc2-c2c3c1cccc3c1ccc(NC(=O)CCS(C)=O)cc1[n+]2C (stereo not drawn) |  |  | 2.3e+07 M⁻¹ | < 100000 M⁻¹ |  |  |  |  |  |  |  |  |  |  |  | 
C[n+]1c2c3c(cccc3c3ccccc31)Sc1ccccc1-2 [Compound 10] |  | <0,1 x10^6 M^−1 | 1e+06 M⁻¹ | < 100000 M⁻¹ |  | 1,0 x10^6 M^−1 | 47,5 | 6170 nM | 130 nM | 49% |  |  | 95% | >10 |  | 
